Test results published in US20120238549A1, “Nuclear Hormone Receptor Modulators” (ABBOTT LABORATORIES, priority 2011, published 2012).

target: T1, Glucocorticoid Receptor (GR) (Homo sapiens, UniProt P04150); experiment: GR Florescence Polarization Assay (PolarScreen Glucocorticoid Receptor Competitor Assay, Red); conditions: Fluorescense polarization binding ranges; competition with fluorescent glucocorticoid, incubated overnight at 4° C.
T1 construct: purchased Invitrogen P2893
T1 sequence (P04150 1-777): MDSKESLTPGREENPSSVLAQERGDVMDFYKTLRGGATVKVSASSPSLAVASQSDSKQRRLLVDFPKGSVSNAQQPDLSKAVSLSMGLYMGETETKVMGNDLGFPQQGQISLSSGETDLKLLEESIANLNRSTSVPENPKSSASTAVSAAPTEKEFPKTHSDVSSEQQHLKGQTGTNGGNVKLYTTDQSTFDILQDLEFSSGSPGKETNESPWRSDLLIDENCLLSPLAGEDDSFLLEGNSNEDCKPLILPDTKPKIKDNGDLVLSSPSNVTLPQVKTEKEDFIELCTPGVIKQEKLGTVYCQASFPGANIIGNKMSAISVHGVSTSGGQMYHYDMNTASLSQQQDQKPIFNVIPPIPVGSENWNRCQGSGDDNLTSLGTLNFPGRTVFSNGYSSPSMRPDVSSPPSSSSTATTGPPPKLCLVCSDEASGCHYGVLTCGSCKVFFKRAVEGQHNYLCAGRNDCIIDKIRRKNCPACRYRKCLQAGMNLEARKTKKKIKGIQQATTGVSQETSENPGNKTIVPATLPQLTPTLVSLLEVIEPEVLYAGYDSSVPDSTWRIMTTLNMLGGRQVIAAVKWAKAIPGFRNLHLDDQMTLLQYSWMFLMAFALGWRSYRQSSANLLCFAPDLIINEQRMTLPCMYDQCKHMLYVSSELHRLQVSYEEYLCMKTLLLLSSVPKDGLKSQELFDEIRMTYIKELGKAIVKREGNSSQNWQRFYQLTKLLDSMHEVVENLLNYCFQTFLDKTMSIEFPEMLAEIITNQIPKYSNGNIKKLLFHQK
How it was run: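 Competitive fluorescence polarization using fluorescent glucocorticoid tracer and human GR in kit buffer. Compounds serially diluted 1:4 in DMSO, incubated with tracer and GR overnight at 4 °C before polarization read.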

`CC[C@@]1(O)CC[C@]2(Cc3ccccc3)c3c(cnn3C)CCC[C@@H]2C1.CC[C@]1(O)CC[C@@]2(Cc3ccccc3)c3c(cnn3C)CCC[C@H]2C1` [Example 39, (6aS,8S,10aS)-10a-Benzyl-8-ethyl-1-methyl-1,4,5,6,6a,7,8,9,10,10a-decahydro-1,2-diaza-benzo[e]azulen-8-ol; compound with (6aR,8R,10aR)-10a-benzyl-8-ethyl-1-methyl-1,4,5,6,6a,7,8,9,10,10a-decahydro-1,2-diaza-benzo[e]azulen-8-ol] and `CC[C@@]1(O)CC[C@@]2(Cc3ccccc3)c3nn(C)cc3CCC[C@H]2C1.CC[C@]1(O)CC[C@]2(Cc3ccccc3)c3nn(C)cc3CCC[C@@H]2C1` [Example 40, (6aS,8R,10aS)-10a-Benzyl-8-ethyl-2-methyl-2,4,5,6,6a,7,8,9,10,10a-decahydro-1,2-diaza-benzo[e]azulen-8-ol; compound with (6aR,8S,10aR)-10a-benzyl-8-ethyl-2-methyl-2,4,5,6,6a,7,8,9,10,10a-decahydro-1,2-diaza-benzo[e]azulen-8-ol] cannot be ordered by IC50: > 10000 nM for the first, > 10000 nM for the second.

First: CC[C@@]1(O)CC[C@]2(Cc3ccccc3)c3nn(C)cc3CCC[C@@H]2C1.CC[C@]1(O)CC[C@@]2(Cc3ccccc3)c3nn(C)cc3CCC[C@H]2C1 [Example 41, (6aS,8S,10aS)-10a-benzyl-8-ethyl-2-methyl-2,4,5,6,6a,7,8,9,10,10a-decahydro-1,2-diaza-benzo[e]azulen-8-ol; compound with (6aR,8R,10aR)-10a-benzyl-8-ethyl-2-methyl-2,4,5,6,6a,7,8,9,10,10a-decahydro-1,2-diaza-benzo[e]azulen-8-ol]
Second: CC[C@@]1(O)CC[C@@]2(Cc3ccccc3)c3ccc(C(=O)Nc4ncc(C)nc4C)cc3CCC[C@H]2C1 [Example 69]
The IC50 of the first is higher: > 10000 nM for the first, < 100 nM for the second. The second is the more potent here.

First: Cc1ncccc1NC(=O)c1ccc2c(c1)CCC[C@H]1C[C@@](O)(c3ccccc3)[C@H](O)C[C@@]21Cc1ccccc1 [Example 43, (7aS,9R,10R,11aR)-11a-Benzyl-9,10-dihydroxy-9-phenyl-6,7,7a,8,9,10,11,11a-octahydro-5H-dibenzo[a,c]cycloheptene-3-carboxylic acid (2-methyl-pyridin-3-yl)-amide; compound with (7aR,9S,10S,11aS)-11a-benzyl-9,10-dihydroxy-9-phenyl-6,7,7a,8,9,10,11,11a-octahydro-5H-dibenzo[a,c]cycloheptene-3-carboxylic acid (2-methyl-pyridin-3-yl)-amide]
Second: Cc1ncccc1NC(=O)c1ccc2c(c1)CCC[C@H]1C[C@@](O)(CC#N)CC[C@@]21Cc1ccccc1 [Example 66]
The IC50 of the first is higher: 100 to 1000 nM for the first, < 100 nM for the second. The second is the more potent here.

Compared with `CC[C@]1(O)CC[C@]2(CC)c3ccc(C(=O)Nc4cccnc4C)cc3CCC[C@@H]2C1` [Example 46], `CC[C@@]1(O)CC[C@@]2(CC)c3ccc(C(=O)Nc4cccnc4C)cc3CCC[C@H]2C1` [Example 47] is lower in IC50: 100 to 1000 nM for the first, < 100 nM for the second.

First: CC[C@]12CC[C@@](O)(CC(C)C)C[C@H]1CCCc1cc(C(=O)Nc3cccnc3C)ccc12 [Example 48]
Second: CC[C@@]12CC[C@](O)(CC(C)C)C[C@@H]1CCCc1cc(C(=O)Nc3cccnc3C)ccc12 [Example 49]
The IC50 of the first is higher: 100 to 1000 nM for the first, < 100 nM for the second. The second is the more potent here.

Compared with `CC[C@]12CC[C@@](O)(CC3CC3)C[C@H]1CCCc1cc(C(=O)Nc3cccnc3C)ccc12` [Example 50], `CC[C@@]12CC[C@](O)(CC3CC3)C[C@@H]1CCCc1cc(C(=O)Nc3cccnc3C)ccc12` [Example 51] is lower in IC50: 100 to 1000 nM for the first, < 100 nM for the second. The second is the more potent here.

Compared with `Cc1ncccc1NC(=O)c1ccc2c(c1)CCC[C@@H]1C[C@](O)(CC#N)CC[C@]21Cc1ccccc1` [Example 67], `CC[C@@]1(O)CC[C@@]2(Cc3ccccc3)c3ccc(C(=O)Nc4ccncc4C)cc3CCC[C@H]2C1` [Example 70] is lower in IC50: 100 to 1000 nM for the first, < 100 nM for the second.

With `CC[C@@]1(O)CC[C@@]2(Cc3ccccc3)c3ccc(C(=O)Nc4cnc(C)nc4C)cc3CCC[C@H]2C1` [Example 68, (7aS,9R,11aS)-11a-Benzyl-9-ethyl-9-hydroxy-6,7,7a,8,9,10,11,11a-octahydro-5H-dibenzo[a,c]cycloheptene-3-carboxylic acid (2,4-dimethyl-pyrimidin-5-yl)-amide] the IC50 was < 100 nM.
